From ChEMBL document CHEMBL4400526, “Design, synthesis and anti-bacterial studies of piperazine derivatives against drug resistant bacteria” (2019)
Converted amounts (≈) assume the structure as drawn. The source made the active and inactive calls. The calls are words filed in the database; no cut-off is given here.

How the values were obtained:
Type in all cases: functional
Escherichia coli [1] = test: Antibacterial activity against Escherichia coli
Staphylococcus aureus [2] = test: Antibacterial activity against Staphylococcus aureus
[3] = system: Staphylococcus epidermidis; test: Antibacterial activity against Staphylococcus epidermidis
Klebsiella pneumoniae = test: Antibacterial activity against Klebsiella pneumoniae ATCC 1705 measured after overnight incubation; conditions: ATCC BAA-1705
Pseudomonas aeruginosa [4] = test: Antibacterial activity against Pseudomonas aeruginosa ATCC 15442 measured after overnight incubation
Bacillus spizizenii = test: Antibacterial activity against Bacillus subtilis ATCC 6633 measured after overnight incubation
Staphylococcus aureus [5] = test: Antibacterial activity against Staphylococcus aureus ATCC 6538 measured after overnight incubation
Escherichia coli [6] = test: Antibacterial activity against Escherichia coli ATCC 25922 measured after overnight incubation
Escherichia coli [7] = test: Antibacterial activity against Escherichia coli clinical isolates measured after overnight incubation
Streptococcus pyogenes = test: Antibacterial activity against Streptococcus hemolyticus clinical isolates measured after overnight incubation
Pseudomonas aeruginosa [8] = test: Antibacterial activity against Pseudomonas aeruginosa clinical isolates measured after overnight incubation
Staphylococcus aureus [9] = test: Antibacterial activity against methicillin-resistant Staphylococcus aureus clinical isolates measured after overnight incubation

Structure (SMILES)	MIC50 (Escherichia coli [1]) [µg/mL]	MIC50 (Staphylococcus aureus [2]) [µg/mL]	MIC50 [3] [µg/mL]	MIC (Klebsiella pneumoniae)	MIC (Pseudomonas aeruginosa [4]; read-out: MIC) [µM]	MIC (Bacillus spizizenii)	MIC (Staphylococcus aureus [5])	MIC (Escherichia coli [6]; read-out: MIC) [µM]	MIC (Escherichia coli [7])	MIC (Streptococcus pyogenes)	MIC (Pseudomonas aeruginosa [8])	MIC (Staphylococcus aureus [9]) [µM]	MIC (Pseudomonas aeruginosa [4])	MIC (Escherichia coli [6])
COc1cc(Cc2cnc(N)nc2N)cc(OC)c1OCCN1CCN(c2cc3c(cc2F)c(=O)c(C(=O)O)cn3C2CC2)CC1	1 (≈ 1.58 µM)	0.5 (≈ 0.789 µM)	0.5 (≈ 0.789 µM)											
O=C(O)CC1(CNCN2CCNCC2)CCCCC1				238 µM (≈ 64 µg/mL)	238 (≈ 64 µg/mL)	119 µM	119 µM	238 (≈ 64 µg/mL)						
C=CC1=C(C(=O)O)N2C(=O)[C@@H](NC(=O)/C(=N\OCC(=O)O)c3csc(N)n3)[C@H]2SC1 [CEFIXIME]					0.06 (≈ 0.0272 µg/mL)	0.06 µM		0.06 (≈ 0.0272 µg/mL)	0.75 µg/mL	0.25 µg/mL	0.5 µg/mL			
O=C(NNCCN1CCN(c2cc3c(cc2F)c(=O)c(C(=O)O)cn3C2CC2)CC1)c1ccncc1				4 µM (≈ 1.98 µg/mL)	4 (≈ 1.98 µg/mL)	1 µM	1 µM	4 (≈ 1.98 µg/mL)	8 µM	8 µM	8 µM	4 (≈ 1.98 µg/mL)		
O=C(O)c1cn(C2CC2)c2cc(N3CCNCC3)c(F)cc2c1=O [CIPROFLOXACIN]						8 µg/mL	8 µg/mL							
CC[C@H]1OC(=O)[C@H](C)[C@@H](O[C@H]2C[C@@](C)(OC)[C@@H](O)[C@H](C)O2)[C@H](C)[C@@H](O[C@@H]2O[C@H](C)C[C@H](N(C)C)[C@H]2O)[C@](C)(O)C[C@@H](C)/C(=N\OCOCCOC)[C@H](C)[C@@H](O)[C@]1(C)O [ROXITHROMYCIN]							0.039 µM							
Nc1ccc(S(N)(=O)=O)cc1						inactive	inactive						inactive	inactive
O=C(NNCN1CCN(c2cc3c(cc2F)c(=O)c(C(=O)O)cn3C2CC2)CC1)c1ccncc1				7.7 µM (≈ 3.7 µg/mL)	7.7 (≈ 3.7 µg/mL)	7.7 µM	4.1 µM	7.7 (≈ 3.7 µg/mL)	33.2 µM	8.3 µM	33.2 µM	2 (≈ 0.961 µg/mL)		
COc1nc(NNC(=O)c2ccncc2)nc(N2CCNCC2)n1				197 µM (≈ 65 µg/mL)	98.4 (≈ 32.5 µg/mL)	49.2 µM	49.2 µM	98.4 (≈ 32.5 µg/mL)						
NNC(=O)c1ccncc1						inactive	inactive						inactive	inactive
NCC1(CC(=O)O)CCCCC1						inactive	inactive						inactive	inactive
O=C(O)CC1(CNCN2CCN(c3cc4c(cc3F)c(=O)c(C(=O)O)cn4C3CC3)CC2)CCCCC1				15.5 µM (≈ 7.98 µg/mL)	15.5 (≈ 7.98 µg/mL)	62.1 µM		15.5 (≈ 7.98 µg/mL)	7.7 µM	62.1 µM	7.7 µM			
NS(=O)(=O)c1ccc(NCCN2CCN(c3cc4c(cc3F)c(=O)c(C(=O)O)cn4C3CC3)CC2)cc1				7.5 µM (≈ 3.97 µg/mL)	7.5 (≈ 3.97 µg/mL)	3.7 µM	3.7 µM	7.5 (≈ 3.97 µg/mL)	7.5 µM	3.7 µM	7.5 µM	3.7 (≈ 1.96 µg/mL)		
NS(=O)(=O)c1ccc(NC(=O)CC2(CNCN3CCN(c4cc5c(cc4F)c(=O)c(C(=O)O)cn5C4CC4)CC3)CCCCC2)cc1				0.7 µM (≈ 0.468 µg/mL)	0.7 (≈ 0.468 µg/mL)	1.4 µM	1.4 µM	0.7 (≈ 0.468 µg/mL)	0.74 µM		0.74 µM	0.74 (≈ 0.495 µg/mL)		
NS(=O)(=O)c1ccc(NCN2CCNCC2)cc1				inactive		inactive	inactive						inactive	inactive
O=C(O)CC1(CNCCN2CCN(c3cc4c(cc3F)c(=O)c(C(=O)O)cn4C3CC3)CC2)CCCCC1				7.5 µM (≈ 3.96 µg/mL)	15.1 (≈ 7.98 µg/mL)	30.2 µM	30.2 µM	7.5 (≈ 3.96 µg/mL)	3.7 µM		3.7 µM	30.2 (≈ 16 µg/mL)		
O=C(O)c1ccc(NCN2CCN(c3cc4c(cc3F)c(=O)c(C(=O)O)cn4C3CC3)CC2)cc1				16.6 µM (≈ 7.98 µg/mL)	8.3 (≈ 3.99 µg/mL)	16.6 µM	16.6 µM	8.3 (≈ 3.99 µg/mL)	8.3 µM	8.3 µM	8.3 µM	66.5 (≈ 32 µg/mL)		
O=C(O)c1ccc(NCN2CCNCC2)cc1				1090 µM (≈ 256 µg/mL)		272 µM	272 µM						1090 µM (≈ 256 µg/mL)	1090 µM (≈ 256 µg/mL)
Nc1ccc(C(=O)O)cc1						inactive	inactive						inactive	inactive
O=C(O)c1ccc(NCCN2CCN(c3cc4c(cc3F)c(=O)c(C(=O)O)cn4C3CC3)CC2)cc1				2 µM (≈ 0.989 µg/mL)	1 (≈ 0.495 µg/mL)	2 µM	2 µM	1 (≈ 0.495 µg/mL)	1 µM		1 µM	16.1 (≈ 7.96 µg/mL)		
O=C(NNCN1CCNCC1)c1ccncc1				inactive		inactive	inactive						inactive	inactive
NS(=O)(=O)c1ccc(NCN2CCN(c3cc4c(cc3F)c(=O)c(C(=O)O)cn4C3CC3)CC2)cc1				1.9 µM (≈ 0.98 µg/mL)	1.9 (≈ 0.98 µg/mL)	0.9 µM	0.9 µM	1.9 (≈ 0.98 µg/mL)	7.7 µM	7.7 µM	7.7 µM	7.7 (≈ 3.97 µg/mL)		
